{"source": "patent US9695240B2", "about": "“Anthracycline derivative conjugates, process for their preparation and their use as antitumor compounds” (Genentech, Inc., priority 2008, dated 2017)", "key": {"MCF7 cells": {"test_system": "MCF7 cells", "assay": "CellTiter-Glo in vitro cell proliferation assay, MCF7", "type": "cell-based, human", "text": "(§1) Cell-based in vitro assays may be used to measure viability, i.e. proliferation (IC50), cytotoxicity (EC50), and induction of apoptosis (caspase activation) of the ADC. The CellTiter-Glo® Luminescent Cell Viability Assay is a commercially available (Promega Corp., Madison, Wis.), homogeneous assay method based on the recombinant expression of Coleoptera luciferase (U.S. Pat. Nos. 5,583,024; 5,674,713; 5,700,670). This cell proliferation assay determines the number of viable cells in culture based on quantitation of the ATP present, an indicator of metabolically active cells (Crouch et al (1993) J. Immunol. Meth. 160:81-88; U.S. Pat. No. 6,602,677). The CellTiter-Glo® Assay is conducted in 96 well format, making it amenable to automated high-throughput screening (HTS) (Cree et al (1995) AntiCancer Drugs 6:398-404). The homogeneous assay procedure involves adding the single reagent (CellTiter-Glo® Reagent) directly to cells cultured in serum-supplemented medium. Cell washing, removal of medium and multiple pipetting steps are not required. The system detects as few as 15 cells/well in a 384-well format in 10 minutes after adding reagent and mixing.\n(§2) The in vitro potency of antibody-drug conjugates was measured by a cell proliferation assay (FIGS. 8-29). The CellTiter-Glo® Luminescent Cell Viability Assay is a commercially available (Promega Corp., Madison, Wis.), homogeneous assay method based on the recombinant expression of Coleoptera luciferase (U.S. Pat. Nos. 5,583,024; 5674,713; 5,700,670). This assay determines the number of viable cells in culture based on quantitation of the ATP present, an indicator of metabolically active cells (Crouch et al (1993) J. Immunol. Meth. 160:81-88; U.S. Pat. No. 6,602,677). The CellTiter-Glo® Assay was conducted in 96 well format, making it amenable to automated high-throughput screening (HTS) (Cree et al (1995) AntiCancer Drugs 6:398-404). The homogeneous assay procedure involves adding the single reagent (CellTiter-Glo® Reagent) directly to cells cultured in serum-supplemented medium.\n(§3) The homogeneous “add-mix-measure” format results in cell lysis and generation of a luminescent signal proportional to the amount of ATP present. The substrate, Beetle Luciferin, is oxidatively decarboxylated by recombinant firefly luciferase with concomitant conversion of ATP to AMP and generation of photons. Viable cells are reflected in relative luminescence units (RLU). Data can be recorded by luminometer or CCD camera imaging device. The luminescence output is presented as RLU, measured over time. Alternatively, photons from luminescence can be counted in a scintillation counter in the presence of a scintillant. The light units can be represented then as CPS—counts per second.\n(§4) Efficacy of ADC were measured by a cell viability assay employing the following protocol, adapted from CellTiter Glo Luminescent Cell Viability Assay, Promega Corp. Technical Bulletin TB288 and Mendoza et al (2002) Cancer Res. 62:5485-5488: • 1. An aliquot of 50 μl of cell culture containing about 1000 or more cells, including: HER2-expressing and CD22-expressing cells, in medium was deposited in each well of a 96-well, opaque-walled, clear bottom plate. • 2. ADC (50 μl) was added to triplicate experimental wells to final concentration of 10 μg/mL, with “no ADC” control wells receiving medium alone, and incubated for 3 or more days. • 3. The plates were equilibrated to room temperature for approximately 30 minutes. • 4. CellTiter-Glo Reagent (100 μl) was added. • 5. The contents were mixed for 2 minutes on an orbital shaker to induce cell lysis. • 6. The plate was incubated at room temperature for 10 minutes to stabilize the luminescence signal. • 7. Luminescence was recorded and reported in graphs as RLU=relative luminescence units."}, "tumor models": {"test_system": "tumor models", "conditions": "cited from earlier work"}, "[1]": {"test_system": "Burkitt's lymphoma Bjab-luc xenograft tumors", "assay": "in vivo Bjab-luc xenograft tumor efficacy study", "design": "species or system CB17 SCID mice", "method": "The therapeutic effect of the antibody-drug conjugate (ADC) compounds and the improvement of their therapeutic efficacy in comparison with the parent drug, were assessed in animal models of human transplanted tumors. Mice bearing xenografts of human tumors were treated with suitable doses of antibody-drug conjugates, of PNU-159682 free drug, and naked antibody, at certain doses, and the tumor growth was recorded and compared in the different treatment groups. FIGS. 30-32 show the efficacy of the antibody-drug conjugates of Formula Ic by xenograft tumor inhibition in mice.\nThe efficacy of the antibody-drug conjugates of the invention may be measured in vivo by implanting allografts or xenografts of cancer cells or primary tumors in rodents and treating the tumors with ADC according to the procedures of Example 12. Variable results are to be expected depending on the cell line, the specificity of antibody binding of the ADC to receptors present on the cancer cells, dosing regimen, and other factors. For example, the in vivo efficacy of anti-HER2 ADC may be measured by a high expressing HER2 transgenic explant mouse model. […] Subjects are treated once with ADC and monitored over 3-6 weeks to measure the time to tumor doubling, log cell kill, and tumor shrinkage. Follow up dose-response and multi-dose experiments may be further conducted.\nThe Bjab-luc (EBV-negative Burkitt's lymphoma, luciferase expressing Bjab cells) tumors express CD22 receptor protein (Polson et al (2009) Cancer Res. 69(6):2358-2364; US 2008/0050310; US 2005/0276812). CD22 is expressed only in the B-cell compartment and on the surface of most NHL cells (D'Arena et al (2000) Am J Hematol. 64:275-81; Olejniczak et al (2006) Immunol Invest. 35:93-114). Efficacy in inhibiting the Bjab-luc xenograft tumor in mice as a model system may predict the clinical response in treating patients with hematopoietic malignancies such as non-Hodgkins lymphoma.\nEfficacy studies were performed using SCID mice (Charles River Laboratories). […] When tumor volumes reached 150-200 mm^3 (typically Day 14 to Day 21 after inoculation), the mice were segregated into sample groups of 9-10 mice per group and the tumor volume was determined in each mouse. […] ADC doses were either measured as the mass of the conjugated cytotoxic small molecule drug per surface area of the mouse, or as a constant mass of ADC per mass of the mouse (e.g., 5 mg of ADC/kg mouse). […] Tumor volume was measured using calipers according to the formula: V (mm^3)=0.5A×B^2, where A and B are the long and short diameters, respectively. […] Data collected from each experimental group were expressed as mean±SE."}, "[2]": {"test_system": "doxorubicin-resistant (DoxRes) HER2 cells", "assay": "CellTiter-Glo in vitro cell proliferation assay, doxorubicin-resistant HER2", "type": "cell-based", "text": "as §1, §2, §3, §4"}, "SK-BR-3 cells": {"test_system": "SK-BR-3 cells", "assay": "CellTiter-Glo in vitro cell proliferation assay, SK-BR-3", "type": "cell-based", "text": "as §1, §2, §3, §4"}, "BT-474 cells": {"test_system": "BT-474 cells", "assay": "CellTiter-Glo in vitro cell proliferation assay, BT-474", "type": "cell-based", "text": "as §1, §2, §3, §4"}, "[3]": {"conditions": "8.77 ug/kg single iv dose day 0, 48 day study"}}, "note": "Entries after “also recorded” stand apart in the source; their conditions may differ."}
{"smiles": "COc1cccc2c1C(=O)c1c(O)c3c(c(O)c1C2=O)C[C@@](O)(C(=O)CO)C[C@@H]3O[C@H]1C[C@H]2[C@H](O[C@@H]3[C@@H](OC)OCCN32)[C@H](C)O1", "note": "[PNU-159682, 3′-deamino-3″,4′-anhydro-[2″(S)-methoxy-3″(R)-oxy-4″-morpholinyl]doxorubicin, reference compound]", "values": [{"measurement": "MCF7 in vitro cell viability at 3 days, in words", "setting": "MCF7 cells; brief (1 hr) exposure", "result": "effectively inhibited growth"}, {"measurement": "MCF7 in vitro cell viability at 3 days, anti-proliferative activity in words", "setting": "MCF7 cells; continuous exposure, 3 days", "result": "most potently inhibited; also recorded: caused cytotoxicity at all concentrations tested"}, {"measurement": "antitumor activity in in vivo tumor models, in words", "setting": "tumor models", "result": "effective in vivo tumor models"}, {"measurement": "CR-complete tumor regression", "setting": "[1]; [3]", "result": 0}, {"measurement": "PR-partial tumor regression", "setting": "[1]; [3]", "result": 0}, {"measurement": "TI-tumor incidence", "setting": "[1]; [3]", "result": "9/9"}, {"measurement": "tumor growth inhibition in Bjab-luc xenograft, in words", "setting": "[1]; single dosing on day 0, doses of FIG. 30", "result": "no effect on tumor growth"}, {"measurement": "DoxRes HER2 in vitro cell viability at 3 days, in words", "setting": "[2]; brief (1 hr) exposure", "result": "effectively inhibited growth"}, {"measurement": "DoxRes HER2 in vitro cell viability at 3 days, anti-proliferative activity in words", "setting": "[2]; continuous exposure, 3 days", "result": "most potently inhibited; also recorded: inhibited growth at all concentrations tested"}, {"measurement": "SK-BR-3 in vitro cell viability at 3 days, in words", "setting": "SK-BR-3 cells; brief (1 hr) exposure", "result": "effectively inhibited growth"}, {"measurement": "SK-BR-3 in vitro cell viability at 3 days, anti-proliferative activity in words", "setting": "SK-BR-3 cells; continuous exposure, 3 days", "result": "most potently inhibited; also recorded: caused cytotoxicity at all doses tested"}, {"measurement": "BT-474 in vitro cell viability at 3 days, in words", "setting": "BT-474 cells; brief (1 hr) exposure", "result": "effectively inhibited growth"}, {"measurement": "BT-474 in vitro cell viability at 3 days, anti-proliferative activity in words", "setting": "BT-474 cells; continuous exposure, 3 days", "result": "most potently inhibited; also recorded: caused cytotoxicity at all doses tested"}]}
